Test results as given in ChEMBL document CHEMBL3425467, “Synthesis, cytotoxicity and haemolytic activity of Pulsatilla saponin A, D derivatives” (Bioorg Med Chem Lett, 2015).

Key:
[1] = tested on: Mus musculus; assay: Toxicity in mouse assessed as death time at 0.1 mL/10 g, iv; assay type: organism-based; conditions: in vivo
[2] = tested on: Mus musculus; assay: Toxicity in mouse assessed as induction of hematuria at 0.1 mL/10 g, iv; assay type: organism-based; conditions: in vivo
[3] = Toxicity in iv dosed mouse assessed as tolerance dose; assay type: organism-based; conditions: in vivo
[4] = tested on: Mus musculus; assay: Toxicity in mouse assessed as induction of induction of death at 0.1 mL/10 g, iv; assay type: organism-based; conditions: in vivo
[5] = Cytotoxicity against human HL7702 cells assessed as inhibition of cell growth after 24 hrs by MTT assay; assay type: cell-based; conditions: L02, 24 h
[6] = tested on: A549; assay: Cytotoxicity against human A549 cells assessed as inhibition of cell growth after 24 hrs by MTT assay; assay type: functional, cell-based; conditions: A549, 24 h
[7] = tested on: SMMC-7721; assay: Cytotoxicity against human SMMC7721 cells assessed as inhibition of cell growth after 24 hrs by MTT assay; assay type: functional, cell-based; conditions: SMMC-7721, 24 h
[8] = Hemolytic activity in rabbit RBC assessed as induction of hemolysis; assay type: cell-based, Oryctolagus cuniculus, Erythrocyte; conditions: red blood cells, read-out: HD50 (the source's name)
[9] = Cytotoxicity against human Bel7402 cells assessed as inhibition of cell growth after 24 hrs by MTT assay; assay type: functional, cell-based; conditions: Bel-7402, 24 h
[10] = Ratio of hemolytic HD50 for PSD to hemolytic HD50 for compound in rabbit RBC; assay type: ADME, cell-based, Oryctolagus cuniculus; conditions: erythrocyte
[11] = Ratio of hemolytic HD50 for PSA to hemolytic HD50 for compound in rabbit RBC; assay type: ADME, cell-based, Oryctolagus cuniculus; conditions: erythrocyte

Row | Structure (SMILES) | Time [1] | Activity [2] | MTD [3] | Activity [4] | IC50 [5] | IC50 [6] | IC50 [7] | HC50 [8] | IC50 [9] | Ratio [10] | Ratio [11]
1 | C[C@@H]1O[C@@H](O[C@H]2[C@H](O[C@H]3CC[C@@]4(C)[C@@H](CC[C@]5(C)[C@@H]4CC=C4[C@@H]6CC(C)(C)CC[C@]6(C(=O)NCC(=O)[O-])CC[C@]45C)[C@]3(C)CO)OC[C@H](O)[C@@H]2O)[C@H](O)[C@H](O)[C@H]1O.[Na+] | > 14 days | Non-toxic | > 160 mg/kg | Non-toxic |  |  |  |  |  |  | 
2 | C[C@@H]1O[C@@H](O[C@H]2[C@H](O[C@H]3CC[C@@]4(C)[C@@H](CC[C@]5(C)[C@@H]4CC=C4[C@@H]6CC(C)(C)CC[C@]6(C(=O)NC6CC6)CC[C@]45C)[C@]3(C)CO)OC[C@H](O)[C@@H]2O)[C@H](O)[C@H](O)[C@H]1O |  |  |  |  | 36.2 µM | 38.3 µM | 32.6 µM | 127 µM | 69.2 µM |  | 
3 | C[C@@H]1O[C@@H](O[C@H]2[C@H](O[C@H]3CC[C@@]4(C)[C@@H](CC[C@]5(C)[C@@H]4CC=C4[C@@H]6CC(C)(C)CC[C@]6(C(=O)N6CCC[C@H]6C(=O)O)CC[C@]45C)[C@]3(C)CO)OC[C@H](O[C@@H]3O[C@H](CO)[C@@H](O)[C@H](O)[C@H]3O)[C@@H]2O)[C@H](O)[C@H](O)[C@H]1O |  |  |  |  | > 100 µM | 71.1 µM | 46.8 µM | 326 µM | 97.8 µM | 20 | 
4 | C[C@@H]1O[C@@H](O[C@H]2[C@H](O[C@H]3CC[C@@]4(C)[C@@H](CC[C@]5(C)[C@@H]4CC=C4[C@@H]6CC(C)(C)CC[C@]6(C(=O)N6CCOCC6)CC[C@]45C)[C@]3(C)CO)OC[C@H](O)[C@@H]2O)[C@H](O)[C@H](O)[C@H]1O |  |  |  |  | 22 µM | 34.7 µM | 17.2 µM | 230 µM | 37.9 µM |  | 20
5 | C[C@@H]1O[C@@H](O[C@H]2[C@H](O[C@H]3CC[C@@]4(C)[C@@H](CC[C@]5(C)[C@@H]4CC=C4[C@@H]6CC(C)(C)CC[C@]6(C(=O)[O-])CC[C@]45C)[C@]3(C)CO)OC[C@H](O[C@@H]3O[C@H](CO)[C@@H](O)[C@H](O)[C@H]3O)[C@@H]2O)[C@H](O)[C@H](O)[C@H]1O.[Na+] | < 0.0417 days | Toxic | 10 mg/kg | Toxic |  |  |  |  |  |  | 
6 | C[C@@H]1O[C@@H](O[C@H]2[C@H](O[C@H]3CC[C@@]4(C)[C@@H](CC[C@]5(C)[C@@H]4CC=C4[C@@H]6CC(C)(C)CC[C@]6(C(=O)N6CCN(CCC(=O)O)CC6)CC[C@]45C)[C@]3(C)CO)OC[C@H](O)[C@@H]2O)[C@H](O)[C@H](O)[C@H]1O |  |  |  |  | 46.6 µM | 23.4 µM | > 100 µM | 195 µM | > 100 µM |  | 20
7 | COC(=O)[C@@H](CO)NC(=O)[C@]12CCC(C)(C)C[C@H]1C1=CC[C@@H]3[C@@]4(C)CC[C@H](O[C@@H]5OC[C@H](O)[C@H](O)[C@H]5O[C@@H]5O[C@@H](C)[C@H](O)[C@@H](O)[C@H]5O)[C@@](C)(CO)[C@@H]4CC[C@@]3(C)[C@]1(C)CC2 |  |  |  |  | > 100 µM | > 100 µM | 88.3 µM | 144 µM | > 100 µM |  | 20
8 | C[C@@H]1O[C@@H](O[C@H]2[C@H](O[C@H]3CC[C@@]4(C)[C@@H](CC[C@]5(C)[C@@H]4CC=C4[C@@H]6CC(C)(C)CC[C@]6(C(N)=O)CC[C@]45C)[C@]3(C)CO)OC[C@H](O)[C@@H]2O)[C@H](O)[C@H](O)[C@H]1O |  |  |  |  | > 100 µM | > 100 µM | > 100 µM | 30.2 µM | > 100 µM |  | 
9 | COC(=O)[C@]12CCC(C)(C)C[C@H]1C1=CC[C@@H]3[C@@]4(C)CC[C@H](O[C@@H]5OC[C@H](O)[C@H](O)[C@H]5O[C@@H]5O[C@@H](C)[C@H](O)[C@@H](O)[C@H]5O)[C@@](C)(CO)[C@@H]4CC[C@@]3(C)[C@]1(C)CC2 |  |  |  |  | 36.3 µM | 27 µM | 40.8 µM | 8.5 µM | 72.1 µM |  | 
10 | C[C@@H]1O[C@@H](O[C@H]2[C@H](O[C@H]3CC[C@@]4(C)[C@@H](CC[C@]5(C)[C@@H]4CC=C4[C@@H]6CC(C)(C)CC[C@]6(C(=O)NCCN6CCCC6)CC[C@]45C)[C@]3(C)CO)OC[C@H](O)[C@@H]2O)[C@H](O)[C@H](O)[C@H]1O |  |  |  |  | 44.4 µM | > 100 µM | 46.8 µM | 104 µM | > 100 µM |  | 
